According to ChEMBL document CHEMBL1157539, “Thousands of chemical starting points for antimalarial lead identification” (Nature, 2010):

system: Plasmodium falciparum; assay: GSK_TCMDC: Inhibition of Plasmodium falciparum 3D7 in whole erythrocytes, using parasite LDH activity as an index of growth.; type: functional, organism-based; settings: Plasmodium falciparum, 3D7

With `CC(=O)Nc1cccc(C(=O)Nc2cccc(-c3ccc(-c4nc5cc(C(F)(F)F)ccc5[nH]4)s3)c2)c1` as the compound, how does the XC50 read?
Its XC50 is 652 nM.

How did the XC50 turn out when `OCC1CCN(Cc2ccc(-c3cccc(-c4nc5cc(F)ccc5[nH]4)c3)cc2)CC1` was run?
Its XC50 is 910 nM.

With `Cn1cnnc1Sc1ccc(CN2CCOc3ccc(C4=CCCCC4)cc3C2)o1` as the compound, how does the XC50 read?
Its XC50 is 849 nM.

With `O=C(N[C@@H](Cc1ccccc1)C(=O)NCc1cccc(C(F)(F)F)c1)c1ccc(O)c(-c2ccc(Cl)c(Cl)c2)c1` as the compound, how does the XC50 read?
Its XC50 is 696 nM.

How did the XC50 turn out when `CS(=O)(=O)Cc1ccc(Nc2nccc(-c3c(-c4cccc(C(=O)Nc5c(F)cccc5F)c4)nn4ccccc34)n2)cc1` was run?
Its XC50 is 532 nM.

`Cc1cc(N(C)C2CCN(C)CC2)nc(Nc2ccc(Br)cc2)n1` was tested. Which XC50 did it give?
The XC50 was 480 nM.

With `CCC(C)CN1C(=O)C(c2ccccc2)(c2ccccc2)N=C1N` (configuration not stated) as the compound, how does the XC50 read?
The XC50 was 712 nM.

With `CC(C)c1ccc(OCCCON2C(=N)N=C(N)NC2(C)C)cc1` as the compound, how does the XC50 read?
Its XC50 is 3.2 nM.

How did the XC50 turn out when `Cc1cc(NC(=O)c2ccco2)ccc1OC1CCN(Cc2ccc(F)cc2)CC1` was run?
The XC50 was 588 nM.

How did the XC50 turn out when `CN1CCN(c2ccc(-c3cc(-c4ccncc4)c(-c4ccc(Cl)c(O)c4)o3)cc2)CC1` was run?
The XC50 was 737 nM.

`Cn1ncc2c3c(CCN4CCC(NCc5cc6c(cn5)OCCO6)CC4)c(Cl)cnc3ccc21` was tested. Which XC50 did it give?
The XC50 was 775 nM.

Which XC50 does the source give for `CC(CN1CCN(C)CC1)C(=O)Nc1ccc(-c2ccc(-c3nc4cc(F)ccc4[nH]3)cc2)cc1` (configuration not stated) here?
Its XC50 is 792 nM.

How did the XC50 turn out when `CCNc1cc(C(=O)N[C@@H](Cc2ccccc2)[C@H](O)CNC(C)(C)Cc2ccccc2)cc(N2CCCC2=O)c1` was run?
The XC50 was 262 nM.

For `COc1ccc(CN(C2CC2)C(C)C(=O)c2[nH]c(C)c(C(C)=O)c2C)cc1` (configuration not stated), which XC50 is on record?
Its XC50 is 1590 nM.

With `COc1ccc(NC(=O)/C=C/c2ccccc2Cl)cc1OCCN1CCC(c2nc3ccccc3[nH]2)CC1` as the compound, how does the XC50 read?
The XC50 was 858 nM.

For `CC1N=C(N)N=C(N)N1OCc1ccccc1` (configuration not stated), which XC50 is on record?
Its XC50 is 32.9 nM.

For `O=C(/C=C/c1ccc(Cl)c(Cl)c1)NC1CCN(Cc2ccc(O)cc2)CC1`, which XC50 is on record?
The XC50 was 691 nM.

For `Cc1cc(NC(=O)c2ccco2)ccc1OC1CCN(Cc2ccc(F)cc2)C1` (configuration not stated), which XC50 is on record?
Its XC50 is 644 nM.

For `O=C(N[C@H]1CCN(Cc2ccc(OCCN3CCCC3)c(Cl)c2)C1)c1ccc(Cl)c(Cl)c1`, which XC50 is on record?
Its XC50 is 921 nM.

How did the XC50 turn out when `COc1ccc(CCN(C)CCCCc2ccc(NC(=O)c3cccc4c(=O)c5cc(F)ccc5sc34)cc2)cc1OC` was run?
The XC50 was 897 nM.

`CCCCN(CCCC)CCNC(=O)c1ccc(-c2nc3cc(Cl)ccc3[nH]2)c(OCC)c1` was tested. Which XC50 did it give?
The XC50 was 570 nM.

Which XC50 does the source give for `O=c1cc(NCCCNCc2cccc(C(F)(F)F)c2Cl)[nH]c2ccccc12` here?
Its XC50 is 804 nM.

For `Cc1cc(N[C@@H](Cc2ccccc2)C(=O)NC2CCCC2)nc(NCC2CCCCC2)n1`, which XC50 is on record?
Its XC50 is 1170 nM.

How did the XC50 turn out when `Cc1cccc(CNc2nc(C)cc(N[C@@H](Cc3ccccc3)C(=O)NC3CCCC3)n2)c1` was run?
The XC50 was 653 nM.

`N#Cc1ccc(CN2CCC(Oc3ccc(NC(=O)c4ccco4)cc3Cl)CC2)cc1` was tested. Which XC50 did it give?
The XC50 was 379 nM.

How did the XC50 turn out when `CCCC(C)c1cnc2nc(N)nc(N)c2c1C` (configuration not stated) was run?
The XC50 was 28.4 nM.

Which XC50 does the source give for `N#CC(NC(=O)C=Cc1ccccc1)c1ccccc1` (configuration not stated) here?
The XC50 was 181 nM.

With `CN(CCC(O)c1ccc(Cl)c(Cl)c1)CC1CC1C(=O)c1ccccc1` (configuration not stated) as the compound, how does the XC50 read?
The XC50 was 794 nM.

`Oc1cccc(-c2cnc3ccc(NCc4ccc(F)cc4)nn23)c1` was tested. Which XC50 did it give?
Its XC50 is 1080 nM.

How did the XC50 turn out when `N=c1c2c(n(Cc3cccc(Cl)c3)c3c1CCC3)CCCC2` was run?
The XC50 was 194 nM.

For `Cc1c(C)n(C2CCCC2)c2ncnc(OC3CCN(CC(=O)NCC4CC4)CC3)c12`, which XC50 is on record?
The XC50 was 891 nM.

Which XC50 does the source give for `CC(C)CNCc1cccc(-c2ccc(CN(C(=O)NC3CCCCC3)C3CCN(Cc4ccccc4)CC3)cc2)c1` here?
Its XC50 is 763 nM.

How did the XC50 turn out when `COc1ccccc1CCNc1nc(C)cc(N[C@@H](CC(C)C)C(=O)NCCc2ccccc2)n1` was run?
Its XC50 is 718 nM.

How did the XC50 turn out when `O=C(CSc1nc(-c2ccccc2Cl)ns1)Nc1cccc(F)c1` was run?
The XC50 was 1110 nM.

Which XC50 does the source give for `CC(C)CCN1CCC(Oc2ccc(NC(=O)c3ccc4ncccc4c3)cc2Cl)C1` (configuration not stated) here?
The XC50 was 974 nM.

With `COc1ccc2cc(C(=O)Nc3ccc4c(c3)CCN(C3CCC3)CC4)ccc2c1` as the compound, how does the XC50 read?
The XC50 was 838 nM.

`CC(=O)Nc1ccc(CN2CCC(NC(=O)c3cc(-c4ccc(N(C)C)cc4)cs3)C2)cc1` (configuration not stated) was tested. Which XC50 did it give?
Its XC50 is 1170 nM.

How did the XC50 turn out when `CN(C)CCOc1cc(NC(=O)Nc2ccc3c(c2)CCCC3=O)ccc1I` was run?
The XC50 was 939 nM.

`COc1cc(NC(=O)/C=C/c2ccccc2OC(F)(F)F)cc(OCCN2CCC(O)(c3ccccc3)CC2)c1` was tested. Which XC50 did it give?
The XC50 was 285 nM.

Which XC50 does the source give for `FC(F)(F)c1ccc2[nH]c(-c3ccc(-c4cccc(CNCc5cnn(-c6ccccc6)n5)c4)s3)nc2c1` here?
The XC50 was 329 nM.

How did the XC50 turn out when `Brc1cc(Br)c2c(c1)C(NCCCNc1nc3ncccc3[nH]1)CCN2` (configuration not stated) was run?
Its XC50 is 595 nM.

With `CCn1ccc2c(N3CCCC3=O)cc(C(=O)N[C@@H](Cc3ccccc3)[C@H](O)CNC(C)(C)CCCC(C)C)cc21` as the compound, how does the XC50 read?
The XC50 was 347 nM.

`CCCCCCCN(Cc1ccc(OC(C)(C)C(=O)OCC)cc1)C(=O)Nc1ccc(Cl)cc1OCC` was tested. Which XC50 did it give?
Its XC50 is 817 nM.

Which XC50 does the source give for `CCOc1cc(Br)c(C(C)NC(=O)c2ccccc2)cc1OCC` (configuration not stated) here?
Its XC50 is 861 nM.

How did the XC50 turn out when `Oc1cc2c(cc1CN1CCN(Cc3ccccc3)CC1)CCC2` was run?
Its XC50 is 721 nM.

`CN1CCCc2cc(NC(=O)c3cc(-c4ccc(Cl)cc4)cs3)ccc2C1` was tested. Which XC50 did it give?
The XC50 was 810 nM.

With `CN(C)CCOc1ccc(-c2cc(-c3ccc(Cl)c(O)c3)c(-c3ccnc(N)n3)o2)cc1` as the compound, how does the XC50 read?
The XC50 was 1320 nM.

With `COc1ccc2cc(-c3nc(-c4c(Cl)cccc4Cl)[nH]c3-c3ccnc(NCCC4CCCN4C)c3)ccc2c1` (configuration not stated) as the compound, how does the XC50 read?
The XC50 was 1030 nM.

For `Cc1cnc(N2CCN(CCCN3CCCC3)CC2)nc1Oc1ccc(-n2ccnc2)cc1`, which XC50 is on record?
The XC50 was 898 nM.

For `CCOc1ccc(-c2cc3nc(C4CCNCC4)c(C(=O)Nc4ccc(C)cc4Cl)cn3n2)cc1`, which XC50 is on record?
Its XC50 is 919 nM.

With `Oc1ccc(CCNCCCCCCNCCc2ccc(Br)cc2)cc1O` as the compound, how does the XC50 read?
Its XC50 is 1020 nM.

With `NS(=O)(=O)c1cccc(Nc2nccc(-c3cnn4ncccc34)n2)c1` as the compound, how does the XC50 read?
The XC50 was 661 nM.

For `O=S(=O)(Nc1cccc(CCN2CCC(N3CCCCC3)CC2)c1)c1ccc(Cl)cc1`, which XC50 is on record?
Its XC50 is 916 nM.

How did the XC50 turn out when `Cc1cccc2nc(-c3cccc(-c4ccc(NC(=O)NC5CC5c5ccccc5)cc4)c3)[nH]c12` (configuration not stated) was run?
The XC50 was 719 nM.

With `COc1ccc2nc3cc(Cl)ccc3c(Nc3ccc(C(=O)O)cc3)c2c1` as the compound, how does the XC50 read?
The XC50 was 301 nM.

For `CC1CN(c2cnn(Cc3cccc(NC(=O)Nc4ccc(F)cc4[N+](=O)[O-])c3)c(=O)c2Cl)CC(C)N1` (configuration not stated), which XC50 is on record?
The XC50 was 866 nM.

With `Cc1sc(C)c(CNCCCNc2cc(=O)c3ccccc3[nH]2)c1Br` as the compound, how does the XC50 read?
The XC50 was 878 nM.

With `CCCCNC(=N)Nc1ccc(OCCCOc2ccc(NC(=N)NCCCC)cc2)cc1` as the compound, how does the XC50 read?
Its XC50 is 164 nM.

Which XC50 does the source give for `COc1ccc(Cl)cc1N1CCN(CCCNC(=O)c2ccc(-c3nc4cc5ccccc5cc4[nH]3)c(F)c2)CC1` here?
The XC50 was 804 nM.

Which XC50 does the source give for `Nc1ncc(-c2ccc(NC(=O)Nc3cc(C(F)(F)F)ccc3F)cc2)c(N)n1` here?
Its XC50 is 719 nM.

How did the XC50 turn out when `O=C(C1CC1c1ccccc1)N(Cc1ccc(-c2ccc(CNCCc3ccccc3)cc2)cc1)C1CCNCC1` (configuration not stated) was run?
Its XC50 is 1110 nM.

With `O=C(c1ccc(Cl)c(Cl)c1)N1CCc2c([nH]c3ccccc23)C1CN1CCCC1` (configuration not stated) as the compound, how does the XC50 read?
The XC50 was 825 nM.

`Cc1[nH]c2ccc(-c3ccc(N(C)C)cc3)cc2c(=O)c1Cl` was tested. Which XC50 did it give?
The XC50 was 720 nM.

How did the XC50 turn out when `c1ccc2c(NCCCCCCCCCNc3ccnc4ccccc34)ccnc2c1` was run?
Its XC50 is 115 nM.

For `CN1CCC(N2CCN(Cc3cccc(-c4ccc(-c5nc6cc(F)ccc6[nH]5)cc4)c3)CC2)CC1`, which XC50 is on record?
The XC50 was 107 nM.

Which XC50 does the source give for `CCCCCCNCc1c(O)ccc2c(CNCCCCCC)c(O)ccc12` here?
The XC50 was 130 nM.

`O=C(Nc1cccc(CN2CCCN(Cc3ccc(O)cc3)CC2)c1)c1cc(F)cc(F)c1` was tested. Which XC50 did it give?
Its XC50 is 658 nM.

With `CCC(C(=O)Nc1ccccc1)n1nc(-c2ccc(C)c(S(=O)(=O)N3CCCCC3)c2)ccc1=O` (configuration not stated) as the compound, how does the XC50 read?
The XC50 was 1090 nM.

For `Cc1ccc(Nc2nc(C)cc(N3CCN(CCc4ccccc4)CC3)n2)cc1`, which XC50 is on record?
Its XC50 is 972 nM.

With `CN(C)CCN(C)Cc1ccc(-c2ccc3c(Nc4ccc(Cl)cc4F)ccnc3c2)o1` as the compound, how does the XC50 read?
The XC50 was 360 nM.

Which XC50 does the source give for `CNC(=O)c1ccccc1Nc1nc(Nc2ccc(N3CCN(C)CC3)nc2)ncc1C` here?
Its XC50 is 1140 nM.

For `Cc1cc(C)c2c(c1)C(=NO)CCN2`, which XC50 is on record?
The XC50 was 945 nM.
